Drawing on US9499550B2 (BRISTOL-MYERS SQUIBB COMPANY, priority 2012, dated 2016), this text covers EC50 for twelve molecules.

Structures are written as SMILES. Like-named read-outs stand apart in the source and are kept apart here.

Assay [1] relates to HCV genotype 1a (H77 strain) replicon in HUH-7 cells. In words: HCV replicon luciferase reporter assay, genotype 1a. The format is cell-based. The following applies: Hepatitis C virus, Huh-7, 72 h, HCV genotype 1a replicon luciferase, 3 days incubation. The gist of the method: (§1)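 Replicon inhibition for both genotypes was measured as Renilla luciferase signal (EnduRen, 7.5 μM final, 2 h) after 3-day, 37° C exposure of replicon-bearing HUH-7 cells in 4% FCS DMEM, 0.5% DMSO. The 1b construct carries S1179I; the 1a H77 construct carries P1496L and S2204I. Twenty-point, 3-fold dilutions were fitted four-parametrically for EC50, and CC50 was taken from multiplexed Cell Titer-Blue.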

The test system of assay [2] is HCV genotype 1b (Con1) replicon in HUH-7 cells. Nature of the assay: HCV replicon luciferase reporter assay, genotype 1b. The format is cell-based. Conditions: Hepatitis C virus, Huh-7, 72 h, HCV genotype 1b replicon luciferase, 3 days incubation. The gist of the method:
as §1

`C[C@@H]1CC/C=C\[C@@H]2C[C@@]2(C(=O)NS(=O)(=O)C2(C)CC2)NC(=O)[C@@H]2C[C@@H](Oc3nccc4c5c(ccc34)OCCO5)CN2C(=O)[C@@H](NC(=O)O[C@H](C)C(F)(F)F)[C@H](C)C1` [Compound 5253, (R)-1,1,1-trifluoropropan-2-yl ((2R,6S,7R,9R,13aS,14aR,16aS,Z)-2-((2,3-dihydro-[1,4]dioxino[2,3-f]isoquinolin-7-yl)oxy)-7,9-dimethyl-14a-(((1-methylcyclopropyl)sulfonyl)carbamoyl)-5,16-dioxo-1,2,3,5,6,7,8,9,10,11,13a,14,14a,15,16,16a-hexadecahydrocyclopropa[e]pyrrolo[1,2-a][1,4]diazacyclopentadecin-6-yl)carbamate]: the EC50 was less than 5.46 nM in assay [1] (read-out: LE_1a (EC50, range)) and less than 5.46 nM in assay [2] (read-out: LE_1b (EC50, range)).

For the molecule `C[C@H]1CC/C=C\[C@@H]2C[C@@]2(C(=O)NS(=O)(=O)C2CC2)NC(=O)[C@@H]2C[C@@H](Oc3nccc4c5c(ccc34)OC(F)(F)O5)CN2C(=O)[C@@H](NC(=O)OC(C)(C)C)[C@H](C)C1` [Compound 5256, tert-butyl ((2R,6S,7R,9S,13aS,14aR,16aS,Z)-14a-((cyclopropylsulfonyl)carbamoyl)-2-((2,2-difluoro-[1,3]dioxolo[4,5-f]isoquinolin-6-yl)oxy)-7,9-dimethyl-5,16-dioxo-1,2,3,5,6,7,8,9,10,11,13a,14,14a,15,16,16a-hexadecahydrocyclopropa[e]pyrrolo[1,2-a][1,4]diazacyclopentadecin-6-yl)carbamate], the EC50 in assay [1] (read-out: LE_1a (EC50)) is 20.9 nM; in assay [1] (read-out: LE_1a (EC50, range)) it was 4.82 to 103 nM; in assay [2] (read-out: LE_1b (EC50)) it was 12.9 nM; in assay [2] (read-out: LE_1b (EC50, range)), 4.82 to 103 nM.

With `C[C@@H]1CC/C=C\[C@@H]2C[C@@]2(C(=O)NS(=O)(=O)C2CC2)NC(=O)[C@@H]2C[C@@H](Oc3nccc4c5c(ccc34)OC(F)(F)O5)CN2C(=O)[C@@H](NC(=O)OC(C)(C)C)[C@H](C)C1` [Compound 5257, tert-butyl ((2R,6S,7R,9R,13aS,14aR,16aS,Z)-14a-((cyclopropylsulfonyl)carbamoyl)-2-((2,2-difluoro-[1,3]dioxolo[4,5-f]isoquinolin-6-yl)oxy)-7,9-dimethyl-5,16-dioxo-1,2,3,5,6,7,8,9,10,11,13a,14,14a,15,16,16a-hexadecahydrocyclopropa[e]pyrrolo[1,2-a][1,4]diazacyclopentadecin-6-yl)carbamate], the EC50 in assay [1] (read-out: LE_1a (EC50, range)) is less than 5.46 nM; in assay [2] (read-out: LE_1b (EC50, range)), less than 5.46 nM.

`C[C@H]1CC/C=C\[C@@H]2C[C@@]2(C(=O)NS(=O)(=O)C2CC2)NC(=O)[C@@H]2C[C@@H](Oc3nccc4c5c(ccc34)OCCO5)CN2C(=O)[C@@H](NC(=O)OC(C)(C)C(F)(F)F)[C@H](C)C1` [Compound 5258, 1,1,1-trifluoro-2-methylpropan-2-yl((2R,6S,7R,9S,13aS,14aR,16aS,Z)-14a-((cyclopropylsulfonyl)carbamoyl)-2-((2,3-dihydro-[1,4]dioxino[2,3-f]isoquinolin-7-yl)oxy)-7,9-dimethyl-5,16-dioxo-1,2,3,5,6,7,8,9,10,11,13a,14,14a,15,16,16a-hexadecahydrocyclopropa[e]pyrrolo[1,2-a][1,4]diazacyclopentadecin-6-yl)carbamate]: the EC50 in assay [1] (read-out: LE_1a (EC50, range)) is 4.82 to 103 nM; in assay [2] (read-out: LE_1b (EC50, range)), less than 5.46 nM.

As to `C[C@@H]1CC/C=C\[C@@H]2C[C@@]2(C(=O)NS(=O)(=O)C2CC2)NC(=O)[C@@H]2C[C@@H](Oc3nccc4c5c(ccc34)OCCO5)CN2C(=O)[C@@H](NC(=O)OC(C)(C)C(F)(F)F)[C@H](C)C1` [Compound 5259, 1,1,1-trifluoro-2-methylpropan-2-yl((2R,6S,7R,9R,13aS,14aR,16aS,Z)-14a-((cyclopropylsulfonyl)carbamoyl)-2-((2,3-dihydro-[1,4]dioxino[2,3-f]isoquinolin-7-yl)oxy)-7,9-dimethyl-5,16-dioxo-1,2,3,5,6,7,8,9,10,11,13a,14,14a,15,16,16a-hexadecahydrocyclopropa[e]pyrrolo[1,2-a][1,4]diazacyclopentadecin-6-yl)carbamate], the EC50 in assay [1] (read-out: LE_1a (EC50, range)) is less than 5.46 nM; in assay [2] (read-out: LE_1b (EC50, range)), less than 5.46 nM.

As for `CCC(C)(OC(=O)N[C@@H]1C(=O)N2C[C@H](Oc3nccc4c5c(ccc34)OCCO5)C[C@H]2C(=O)N[C@]2(C(=O)NS(=O)(=O)C3CC3)C[C@H]2/C=C\CC[C@@H](C)C[C@H]1C)C(F)(F)F` (stereo partly shown) [Compound 5260], the EC50 in assay [1] (GETYPE1A, read-out: LE_1a (EC50, range)) is less than 5.46 nM; in assay [2] (GETYPE1B, read-out: LE_1b (EC50, range)), less than 5.46 nM.

With `CCC(CC)(OC(=O)N[C@@H]1C(=O)N2C[C@H](Oc3nccc4c5c(ccc34)OCCO5)C[C@H]2C(=O)N[C@]2(C(=O)NS(=O)(=O)C3CC3)C[C@H]2/C=C\CC[C@H](C)C[C@H]1C)C(F)(F)F` [Compound 5261, 3-(trifluoromethyl)pentan-3-yl ((2R,6S,7R,9S,13aS,14aR,16aS,Z)-14a-((cyclopropylsulfonyl)carbamoyl)-2-((2,3-dihydro-[1,4]dioxino[2,3-f]isoquinolin-7-yl)oxy)-7,9-dimethyl-5,16-dioxo-1,2,3,5,6,7,8,9,10,11,13a,14,14a,15,16,16a-hexadecahydrocyclopropa[e]pyrrolo[1,2-a][1,4]diazacyclopentadecin-6-yl)carbamate], the EC50 in assay [1] (read-out: LE_1a (EC50)) is 14.3 nM; in assay [1] (read-out: LE_1a (EC50, range)) it was 4.82 to 103 nM; in assay [2] (read-out: LE_1b (EC50)), 2.18 nM; in assay [2] (read-out: LE_1b (EC50, range)) it was less than 5.46 nM.

On to `CCC(CC)(OC(=O)N[C@@H]1C(=O)N2C[C@H](Oc3nccc4c5c(ccc34)OCCO5)C[C@H]2C(=O)N[C@]2(C(=O)NS(=O)(=O)C3CC3)C[C@H]2/C=C\CC[C@@H](C)C[C@H]1C)C(F)(F)F` [Compound 5262, 3-(trifluoromethyl)pentan-3-yl ((2R,6S,7R,9R,13aS,14aR,16aS,Z)-14a-((cyclopropylsulfonyl)carbamoyl)-2-((2,3-dihydro-[1,4]dioxino[2,3-f]isoquinolin-7-yl)oxy)-7,9-dimethyl-5,16-dioxo-1,2,3,5,6,7,8,9,10,11,13a,14,14a,15,16,16a-hexadecahydrocyclopropa[e]pyrrolo[1,2-a][1,4]diazacyclopentadecin-6-yl)carbamate], for which the EC50 is less than 5.46 nM in assay [1] (read-out: LE_1a (EC50, range)) and less than 5.46 nM in assay [2] (read-out: LE_1b (EC50, range)).

For `C[C@H]1CC/C=C\[C@@H]2C[C@@]2(C(=O)NS(=O)(=O)C2CC2)NC(=O)[C@@H]2C[C@@H](Oc3nccc4c5c(ccc34)OCCO5)CN2C(=O)[C@@H](NC(=O)O[C@@H]2C[C@@H]3C[C@@H]3C2)[C@H](C)C1` [Compound 5263, (1R,3r,5S)-bicyclo[3.1.0]hexan-3-yl((2R,6S,7R,9S,13aS,14aR,16aS,Z)-14a-((cyclopropylsulfonyl)carbamoyl)-2-((2,3-dihydro-[1,4]dioxino[2,3-f]isoquinolin-7-yl)oxy)-7,9-dimethyl-5,16-dioxo-1,2,3,5,6,7,8,9,10,11,13a,14,14a,15,16,16a-hexadecahydrocyclopropa[e]pyrrolo[1,2-a][1,4]diazacyclopentadecin-6-yl)carbamate], the EC50 is 4.82 to 103 nM in assay [1] (read-out: LE_1a (EC50, range)) and less than 5.46 nM in assay [2] (read-out: LE_1b (EC50, range)).

Turning to `C[C@@H]1CC/C=C\[C@@H]2C[C@@]2(C(=O)NS(=O)(=O)C2CC2)NC(=O)[C@@H]2C[C@@H](Oc3nccc4c5c(ccc34)OCCO5)CN2C(=O)[C@@H](NC(=O)O[C@@H]2C[C@@H]3C[C@@H]3C2)[C@H](C)C1` [Compound 5264, (1R,3r,5S)-bicyclo[3.1.0]hexan-3-yl((2R,6S,7R,9R,13aS,14aR,16aS,Z)-14a-((cyclopropylsulfonyl)carbamoyl)-2-((2,3-dihydro-[1,4]dioxino[2,3-f]isoquinolin-7-yl)oxy)-7,9-dimethyl-5,16-dioxo-1,2,3,5,6,7,8,9,10,11,13a,14,14a,15,16,16a-hexadecahydrocyclopropa[e]pyrrolo[1,2-a][1,4]diazacyclopentadecin-6-yl)carbamate], the EC50 in assay [1] (read-out: LE_1a (EC50, range)) is less than 5.46 nM; in assay [2] (read-out: LE_1b (EC50, range)), less than 5.46 nM.

As for `CCC(C)(CC)OC(=O)N[C@@H]1C(=O)N2C[C@H](Oc3nccc4c5c(ccc34)OCCO5)C[C@H]2C(=O)N[C@]2(C(=O)NS(=O)(=O)C3CC3)C[C@H]2/C=C\CC[C@H](C)C[C@H]1C` [Compound 5265, 3-methylpentan-3-yl((2R,6S,7R,9S,13aS,14aR,16aS,Z)-14a-((cyclopropylsulfonyl)carbamoyl)-2-((2,3-dihydro-[1,4]dioxino[2,3-f]isoquinolin-7-yl)oxy)-7,9-dimethyl-5,16-dioxo-1,2,3,5,6,7,8,9,10,11,13a,14,14a,15,16,16a-hexadecahydrocyclopropa[e]pyrrolo[1,2-a][1,4]diazacyclopentadecin-6-yl)carbamate], the EC50 in assay [1] (read-out: LE_1a (EC50, range)) was 4.82 to 103 nM; in assay [2] (read-out: LE_1b (EC50, range)), less than 5.46 nM.

Turning to `CCC(C)(CC)OC(=O)N[C@@H]1C(=O)N2C[C@H](Oc3nccc4c5c(ccc34)OCCO5)C[C@H]2C(=O)N[C@]2(C(=O)NS(=O)(=O)C3CC3)C[C@H]2/C=C\CC[C@@H](C)C[C@H]1C` [Compound 5266, 3-methylpentan-3-yl((2R,6S,7R,9R,13aS,14aR,16aS,Z)-14a-((cyclopropylsulfonyl)carbamoyl)-2-((2,3-dihydro-[1,4]dioxino[2,3-f]isoquinolin-7-yl)oxy)-7,9-dimethyl-5,16-dioxo-1,2,3,5,6,7,8,9,10,11,13a,14,14a,15,16,16a-hexadecahydrocyclopropa[e]pyrrolo[1,2-a][1,4]diazacyclopentadecin-6-yl)carbamate], the EC50 in assay [1] (read-out: LE_1a (EC50, range)) was less than 5.46 nM; in assay [2] (read-out: LE_1b (EC50, range)), less than 5.46 nM.

What is called EC50 is the midpoint of the concentration-response curve.
